# Laboratory results reported in PubChem BioAssay (NCI).
#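 Interpolation was linear, between the two tested concentrations surrounding the appropriate level; five concentrations were tested over 48 hours in 96-well plates. Here, GI50 denotes the concentration required for 50% inhibition of growth. TGI marks complete inhibition of growth.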
# What was measured:
# Assay in all cases: DTP human tumour cell line panel, 48 h
# PC-3 prostate = tested on: PC-3 prostate
# ACHN renal = tested on: ACHN renal
# EKVX NSCLC = tested on: EKVX NSCLC
# COLO 205 colon = tested on: COLO 205 colon
# MDA-MB-231 breast = tested on: MDA-MB-231 breast
# CAKI-1 renal = tested on: CAKI-1 renal
# HCT-15 colon = tested on: HCT-15 colon
# DU-145 prostate = tested on: DU-145 prostate
# SNB-19 CNS = tested on: SNB-19 CNS
# CCRF-CEM leukemia = tested on: CCRF-CEM leukemia
# HT29 colon = tested on: HT29 colon
# SK-MEL-28 melanoma = tested on: SK-MEL-28 melanoma
# HOP-92 NSCLC = tested on: HOP-92 NSCLC
# U251 CNS = tested on: U251 CNS
# NCI-H460 lung = tested on: NCI-H460 lung
# A549 NSCLC = tested on: A549 NSCLC
# A498 renal = tested on: A498 renal
# SN12C renal = tested on: SN12C renal
# RPMI-8226 leukemia = tested on: RPMI-8226 leukemia
# UACC-62 melanoma = tested on: UACC-62 melanoma
# HCC-2998 colon = tested on: HCC-2998 colon
# UO-31 renal = tested on: UO-31 renal
# KM12 colon = tested on: KM12 colon
# OVCAR-8 ovarian = tested on: OVCAR-8 ovarian
# 786-0 renal = tested on: 786-0 renal
# SK-MEL-2 melanoma = tested on: SK-MEL-2 melanoma
# SW-620 colon = tested on: SW-620 colon
# RXF 393 renal = tested on: RXF 393 renal
# K-562 leukemia = tested on: K-562 leukemia
# NCI/ADR-RES ovarian = tested on: NCI/ADR-RES ovarian
# LOX IMVI melanoma = tested on: LOX IMVI melanoma
# MOLT-4 leukemia = tested on: MOLT-4 leukemia
# HCT-116 colon = tested on: HCT-116 colon
# SF-268 CNS = tested on: SF-268 CNS
# NCI-H23 lung = tested on: NCI-H23 lung
# MCF7 breast = tested on: MCF7 breast
# SK-MEL-5 melanoma = tested on: SK-MEL-5 melanoma
# SK-OV-3 ovarian = tested on: SK-OV-3 ovarian
# MDA-MB-435 = tested on: MDA-MB-435
# OVCAR-4 ovarian = tested on: OVCAR-4 ovarian
# MALME-3M melanoma = tested on: MALME-3M melanoma
# UACC-257 melanoma = tested on: UACC-257 melanoma
# HS 578T breast = tested on: HS 578T breast
# SF-539 CNS = tested on: SF-539 CNS
# T-47D breast = tested on: T-47D breast
# SNB-75 CNS = tested on: SNB-75 CNS
# NCI-H226 lung = tested on: NCI-H226 lung
# BT-549 breast = tested on: BT-549 breast
# HL-60(TB) leukemia = tested on: HL-60(TB) leukemia
# TK-10 renal = tested on: TK-10 renal
# SF-295 CNS = tested on: SF-295 CNS
# NCI-H522 lung = tested on: NCI-H522 lung
# OVCAR-3 ovarian = tested on: OVCAR-3 ovarian
# M14 melanoma = tested on: M14 melanoma
# IGROV1 ovarian = tested on: IGROV1 ovarian
# OVCAR-5 ovarian = tested on: OVCAR-5 ovarian
# HOP-62 NSCLC = tested on: HOP-62 NSCLC
compound,measurement,setting,value
COc1ccccc1C(=O)OCC1CCCN2CCCCC12 (stereo unspecified),TGI,PC-3 prostate,> 100 µM
same,TGI,ACHN renal,> 100 µM
same,TGI,EKVX NSCLC,> 100 µM
same,TGI,COLO 205 colon,> 100 µM
same,TGI,MDA-MB-231 breast,61.6 µM
same,TGI,CAKI-1 renal,> 100 µM
same,TGI,HCT-15 colon,> 100 µM
same,TGI,DU-145 prostate,> 100 µM
same,TGI,SNB-19 CNS,> 100 µM
same,TGI,CCRF-CEM leukemia,46.1 µM
same,TGI,HT29 colon,32.2 µM
same,TGI,SK-MEL-28 melanoma,65.7 µM
same,TGI,HOP-92 NSCLC,> 100 µM
same,TGI,U251 CNS,73.1 µM
same,TGI,NCI-H460 lung,52 µM
same,TGI,A549 NSCLC,> 100 µM
same,TGI,A498 renal,> 100 µM
same,TGI,SN12C renal,96 µM
same,TGI,RPMI-8226 leukemia,> 100 µM
same,TGI,UACC-62 melanoma,> 100 µM
same,TGI,HCC-2998 colon,42.2 µM
same,TGI,UO-31 renal,> 100 µM
same,TGI,KM12 colon,36.6 µM
same,TGI,OVCAR-8 ovarian,45.8 µM
same,TGI,786-0 renal,> 100 µM
same,TGI,SK-MEL-2 melanoma,> 100 µM
same,TGI,SW-620 colon,> 100 µM
same,TGI,RXF 393 renal,73.6 µM
same,TGI,K-562 leukemia,> 100 µM
same,TGI,NCI/ADR-RES ovarian,> 100 µM
same,TGI,LOX IMVI melanoma,34.8 µM
same,TGI,MOLT-4 leukemia,> 100 µM
same,TGI,HCT-116 colon,> 100 µM
same,TGI,SF-268 CNS,> 100 µM
same,TGI,NCI-H23 lung,> 100 µM
same,TGI,MCF7 breast,> 100 µM
same,TGI,SK-MEL-5 melanoma,> 100 µM
same,TGI,SK-OV-3 ovarian,> 100 µM
same,TGI,MDA-MB-435,> 100 µM
same,TGI,OVCAR-4 ovarian,> 100 µM
same,TGI,MALME-3M melanoma,> 100 µM
same,TGI,UACC-257 melanoma,> 100 µM
same,TGI,HS 578T breast,> 100 µM
same,TGI,SF-539 CNS,> 100 µM
same,TGI,T-47D breast,81.7 µM
same,TGI,SNB-75 CNS,63.4 µM
same,TGI,NCI-H226 lung,> 100 µM
same,TGI,BT-549 breast,54.6 µM
same,TGI,HL-60(TB) leukemia,44.2 µM
same,TGI,TK-10 renal,> 100 µM
same,TGI,SF-295 CNS,> 100 µM
COc1cc(C(=O)O[C@H](C(=O)NCCCCNC(=O)[C@@H](OC(=O)c2cc(OC)cc3c(C)cccc23)[C@]2(C)CO2)[C@]2(C)CO2)c2cccc(C)c2c1,GI50,PC-3 prostate,0.114 µM
same,TGI,PC-3 prostate,1.5 µM
same,GI50,ACHN renal,< 0.01 µM
same,TGI,ACHN renal,< 0.01 µM
same,GI50,NCI-H522 lung,0.0207 µM
same,TGI,NCI-H522 lung,10.9 µM
same,GI50,EKVX NSCLC,0.227 µM
same,TGI,EKVX NSCLC,2.57 µM
same,GI50,COLO 205 colon,0.111 µM
same,TGI,COLO 205 colon,3.65 µM
same,GI50,MDA-MB-231 breast,1.85 µM
same,TGI,MDA-MB-231 breast,5.48 µM
same,GI50,CAKI-1 renal,0.0122 µM
same,TGI,CAKI-1 renal,0.0986 µM
same,GI50,HCT-15 colon,0.104 µM
same,TGI,HCT-15 colon,1.18 µM
same,TGI,DU-145 prostate,0.352 µM
same,GI50,SNB-19 CNS,0.201 µM
same,TGI,SNB-19 CNS,2.31 µM
same,GI50,CCRF-CEM leukemia,< 0.01 µM
same,TGI,CCRF-CEM leukemia,> 100 µM
same,GI50,OVCAR-3 ovarian,0.207 µM
same,TGI,OVCAR-3 ovarian,0.73 µM
same,GI50,HT29 colon,0.104 µM
same,TGI,HT29 colon,> 100 µM
same,GI50,SK-MEL-28 melanoma,0.0409 µM
same,TGI,SK-MEL-28 melanoma,50 µM
same,GI50,HOP-92 NSCLC,0.0452 µM
same,TGI,HOP-92 NSCLC,0.22 µM
same,GI50,U251 CNS,< 0.01 µM
same,TGI,U251 CNS,0.107 µM
same,GI50,NCI-H460 lung,< 0.0354 µM
same,TGI,NCI-H460 lung,0.228 µM
same,GI50,A549 NSCLC,0.26 µM
same,TGI,A549 NSCLC,0.699 µM
same,GI50,A498 renal,2.46 µM
same,TGI,A498 renal,5.16 µM
same,GI50,SN12C renal,0.885 µM
same,TGI,SN12C renal,2.39 µM
same,GI50,RPMI-8226 leukemia,0.195 µM
same,TGI,RPMI-8226 leukemia,3.86 µM
same,GI50,UACC-62 melanoma,1.5 µM
same,TGI,UACC-62 melanoma,3.64 µM
same,GI50,HCC-2998 colon,0.0442 µM
same,TGI,HCC-2998 colon,0.343 µM
same,GI50,UO-31 renal,0.466 µM
same,TGI,UO-31 renal,> 100 µM
same,GI50,KM12 colon,0.139 µM
same,TGI,KM12 colon,0.802 µM
same,GI50,OVCAR-8 ovarian,0.0192 µM
same,TGI,OVCAR-8 ovarian,0.206 µM
same,TGI,786-0 renal,1.25 µM
same,GI50,SK-MEL-2 melanoma,0.0724 µM
same,GI50,SW-620 colon,< 0.0111 µM
same,TGI,K-562 leukemia,3.05 µM
same,GI50,NCI/ADR-RES ovarian,0.199 µM
same,TGI,NCI/ADR-RES ovarian,0.904 µM
same,GI50,LOX IMVI melanoma,< 0.01 µM
same,TGI,LOX IMVI melanoma,< 0.01 µM
same,GI50,MOLT-4 leukemia,< 0.01 µM
same,TGI,MOLT-4 leukemia,0.676 µM
same,GI50,SF-268 CNS,0.0101 µM
same,TGI,SF-268 CNS,0.0619 µM
same,GI50,NCI-H23 lung,< 0.01 µM
same,TGI,NCI-H23 lung,0.118 µM
same,GI50,MCF7 breast,< 0.01 µM
same,TGI,MCF7 breast,< 0.0355 µM
same,GI50,M14 melanoma,0.0769 µM
same,TGI,M14 melanoma,0.591 µM
same,GI50,SK-MEL-5 melanoma,0.0203 µM
same,TGI,SK-MEL-5 melanoma,0.233 µM
same,GI50,SK-OV-3 ovarian,0.703 µM
same,TGI,SK-OV-3 ovarian,6.19 µM
same,GI50,MDA-MB-435,0.144 µM
same,TGI,MDA-MB-435,0.61 µM
same,TGI,IGROV1 ovarian,0.944 µM
same,GI50,OVCAR-4 ovarian,0.218 µM
same,TGI,OVCAR-4 ovarian,2.08 µM
same,GI50,OVCAR-5 ovarian,0.257 µM
same,TGI,OVCAR-5 ovarian,1.05 µM
same,TGI,UACC-257 melanoma,0.222 µM
same,GI50,HS 578T breast,0.479 µM
same,TGI,HS 578T breast,> 100 µM
same,GI50,SF-539 CNS,< 0.0385 µM
same,TGI,SF-539 CNS,0.266 µM
same,TGI,HOP-62 NSCLC,0.892 µM
same,GI50,T-47D breast,0.253 µM
same,TGI,T-47D breast,1.74 µM
same,GI50,SNB-75 CNS,0.114 µM
same,TGI,SNB-75 CNS,0.373 µM
same,GI50,NCI-H226 lung,0.62 µM
same,TGI,NCI-H226 lung,2.07 µM
same,GI50,BT-549 breast,0.305 µM
same,TGI,BT-549 breast,5.53 µM
same,GI50,HL-60(TB) leukemia,< 0.01 µM
same,TGI,HL-60(TB) leukemia,< 0.01 µM
same,GI50,TK-10 renal,0.469 µM
same,TGI,TK-10 renal,1.36 µM
same,GI50,SF-295 CNS,0.122 µM
same,TGI,SF-295 CNS,0.672 µM
